Source: patent US6066672A, “Amino compounds and angiotensin IV receptor agonists” (Taisho Pharmaceutical Co., Ltd., priority 1996, dated 2000)
Structures can show the parent of a compound that is named as a salt.

Biological target: T1, angiotensin IV receptor (Cavia porcellus, UniProt H0VNM7)
T1 construct: The Hartley guinea pig hippocampus was homogenized in a 50 mM Tris hydrochloride buffer solution; from tissue; host or cells: Hartley guinea pig hippocampus, crude membrane (48,000 x g precipitate)
T1 sequence (H0VNM7 1-1025): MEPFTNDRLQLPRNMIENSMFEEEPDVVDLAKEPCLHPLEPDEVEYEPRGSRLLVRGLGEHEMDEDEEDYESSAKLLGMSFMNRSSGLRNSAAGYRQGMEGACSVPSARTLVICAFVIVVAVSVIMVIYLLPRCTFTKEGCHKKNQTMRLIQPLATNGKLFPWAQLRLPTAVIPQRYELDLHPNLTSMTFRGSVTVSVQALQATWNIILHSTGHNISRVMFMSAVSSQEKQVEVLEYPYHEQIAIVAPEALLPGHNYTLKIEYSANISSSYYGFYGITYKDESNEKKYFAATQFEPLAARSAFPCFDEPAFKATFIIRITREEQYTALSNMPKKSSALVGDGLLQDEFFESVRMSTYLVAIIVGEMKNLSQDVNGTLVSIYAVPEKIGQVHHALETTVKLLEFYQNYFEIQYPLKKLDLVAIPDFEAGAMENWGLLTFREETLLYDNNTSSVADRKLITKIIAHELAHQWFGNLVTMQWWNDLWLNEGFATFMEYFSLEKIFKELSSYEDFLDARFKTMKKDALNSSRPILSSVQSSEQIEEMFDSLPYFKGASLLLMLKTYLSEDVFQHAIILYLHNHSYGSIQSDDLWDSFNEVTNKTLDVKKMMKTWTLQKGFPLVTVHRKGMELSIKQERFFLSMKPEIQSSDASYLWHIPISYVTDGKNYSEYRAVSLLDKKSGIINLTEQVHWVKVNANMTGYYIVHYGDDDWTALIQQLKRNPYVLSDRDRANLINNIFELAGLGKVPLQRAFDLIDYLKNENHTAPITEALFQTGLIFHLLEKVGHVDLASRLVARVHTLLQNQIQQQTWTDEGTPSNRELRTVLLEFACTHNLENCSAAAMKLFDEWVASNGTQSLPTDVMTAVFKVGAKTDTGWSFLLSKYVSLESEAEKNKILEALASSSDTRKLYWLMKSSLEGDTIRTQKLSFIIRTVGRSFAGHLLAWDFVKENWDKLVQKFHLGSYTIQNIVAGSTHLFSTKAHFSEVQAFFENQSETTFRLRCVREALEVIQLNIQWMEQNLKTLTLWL
Assay: binding capability to angiotensin IV receptor, inhibition of 125I-angiotensin IV binding to guinea pig hippocampus membrane
Details: 0.2 nM 125I-angiotensin IV, Hartley guinea pig hippocampus crude membrane, 37° C., 90 minutes, pH 7.4
Procedure: The binding capability to angiotensin IV receptor was measured by using Hartley guinea pig hippocampus referring to the method described by Miller-Wing et al., J. Pharmacol. Exp. Ther., vol. 266, pp.1718 (1993). The Hartley guinea pig hippocampus was homogenized in a 50 mM Tris hydrochloride buffer solution (pH 7.4) containing 1 mM ethylenediamine-N,N,N',N'-tetraacetic acid (EDTA) and 100 μM phenylmethanesulfonyl fluoride (PMSF). After centrifugation at 900× g, the resulting supernatant was further centrifuged at 48,000× g. The precipitate was washed once with the same buffer solution and suspended in 50 mM Tris hydrochloride buffer solution (pH 7.4) containing 150 mM sodium chloride, 1 mM EDTA, 100 μM PMSF and 0.1% bovine serum albumin (BSA) to give a protein concentration of […] as a crude membrane specimen. […] The radioactivity on the filter paper was measured by using a gamma-counter. The non-specific bond was measured in the presence of 1 μM angiotensin IV, and the specific bond was calculated by subtracting the non-specific bond from the total bond.

Structure (SMILES) | IC50 [µM]
CCCC[C@H](N)CN[C@@H](Cc1ccc(O)cc1)C(=O)N[C@H](CC)CC(C)C [Example 26, N'-[(S)-2-aminohexyl]-N-[(R)-1-ethyl-3-methylbutyl]-L-tyrosinamide dihydrochloride] | 0.0385
CCCC[C@H](N)C(=O)N[C@H](CN[C@H](/C=C/c1ccccc1)CC(C)C)Cc1ccc(O)cc1 [Example 27, N-[(S)-1-[(4-hydroxyphenyl)methyl]-2-[(S)-(E)-[1-(2-methylpropyl)-3-phenyl-2-propenyl]amino]ethyl]-L-norleucinamide dihydrochloride] | 0.328
CCCC[C@H](N)C(=O)N[C@H](CN[C@H](CCc1ccccc1)CC(C)C)Cc1ccc(O)cc1 [Example 28, N-[1-[(S)-[(4-hydroxyphenyl)methyl]]-2-[[(R)-3-methyl-1-(2-phenylethyl)butyl]amino]ethyl]-L-norleucinamide dihydrochloride] | 0.299
CCCC[C@H](N)CN[C@H](CN[C@H](/C=C/c1ccccc1)CC(C)C)Cc1ccc(O)cc1 [Example 29, (S)-(E)-N-[(S)-2-[[(S)-2-aminohexyl]amino]-3-(4-hydroxyphenyl)propyl]-5-methyl-1-phenyl-1-hexen-3-amine trihydrochloride] | 0.0242
CCCC[C@H](N)CN[C@H](CN[C@H](CCc1ccccc1)CC(C)C)Cc1ccc(O)cc1 [Example 30, (R)-N-[(S)-2-[[(S)-2-aminohexyl]amino]-3-(4-hydroxyphenyl)propyl]-5-methyl-1-phenylhexan-3-amine trihydrochloride] | 0.171
CCCC[C@H](N)CN[C@H](CN[C@H](C(=O)OC)[C@@H](C)CC)Cc1ccc(O)cc1 [Example 31, N-[(S)-2-[[(S)-2-aminohexyl]amino]-3-(4-hydroxyphenyl)propyl]-L-isoleucinemethyl ester trihydrochloride] | 0.032
